In patent US10660877B2 (BRISTOL-MYERS SQUIBB COMPANY, priority 2016, dated 2020):
Like-named read-outs stand apart in the source and are kept apart here.

Legend:
human TLR8 = human TLR8 (Homo sapiens (Human), UniProt Q9NR97); test: TLR8 inhibition reporter assay (HEK-Blue cells, SEAP reporter, R848 stimulation);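 further: compounds tested from 0.05 nM to 50 µM, 22 h at 37 °C, SEAP measured with HEK-Blue Detection, inhibition relative to agonist plus DMSO versus a known inhibitor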
human TLR7 = human TLR7 (Homo sapiens (Human), UniProt Q9NYK1); test: TLR7 inhibition reporter assay (HEK-Blue cells, SEAP reporter, gardiquimod stimulation); format: cell-based
human TLR7, sequence (Q9NYK1 27-1049): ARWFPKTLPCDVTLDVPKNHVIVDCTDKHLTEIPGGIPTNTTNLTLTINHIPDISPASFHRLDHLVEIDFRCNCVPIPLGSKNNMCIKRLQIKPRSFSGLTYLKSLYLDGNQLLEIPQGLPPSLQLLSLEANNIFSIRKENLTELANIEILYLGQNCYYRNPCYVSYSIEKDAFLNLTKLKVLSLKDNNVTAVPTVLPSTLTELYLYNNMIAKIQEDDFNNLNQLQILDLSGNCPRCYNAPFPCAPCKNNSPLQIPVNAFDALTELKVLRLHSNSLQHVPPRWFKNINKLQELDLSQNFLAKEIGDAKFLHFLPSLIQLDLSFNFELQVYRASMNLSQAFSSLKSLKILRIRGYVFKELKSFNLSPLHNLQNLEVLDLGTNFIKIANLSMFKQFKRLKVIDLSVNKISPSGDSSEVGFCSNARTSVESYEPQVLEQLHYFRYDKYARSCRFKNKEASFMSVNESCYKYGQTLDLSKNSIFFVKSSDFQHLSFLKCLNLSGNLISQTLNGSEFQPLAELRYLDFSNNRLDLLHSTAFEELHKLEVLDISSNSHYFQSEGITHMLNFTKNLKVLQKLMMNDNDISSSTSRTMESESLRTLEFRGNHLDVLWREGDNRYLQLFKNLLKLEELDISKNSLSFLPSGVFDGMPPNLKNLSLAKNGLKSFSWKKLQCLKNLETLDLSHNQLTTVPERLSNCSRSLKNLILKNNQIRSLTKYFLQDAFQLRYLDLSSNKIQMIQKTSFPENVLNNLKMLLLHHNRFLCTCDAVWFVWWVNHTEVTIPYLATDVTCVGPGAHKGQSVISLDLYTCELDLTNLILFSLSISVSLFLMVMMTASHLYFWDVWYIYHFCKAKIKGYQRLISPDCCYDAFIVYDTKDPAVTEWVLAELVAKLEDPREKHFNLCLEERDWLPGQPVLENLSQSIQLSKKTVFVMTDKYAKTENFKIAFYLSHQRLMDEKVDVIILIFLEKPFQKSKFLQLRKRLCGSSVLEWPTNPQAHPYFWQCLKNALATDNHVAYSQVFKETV

human TLR9 = human TLR9 (Homo sapiens (Human), UniProt Q9NR96); test: TLR9 inhibition reporter assay (HEK-Blue cells, SEAP reporter, ODN2006 stimulation);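 further: compounds tested over 0.05 nM to 50 µM, 22 h incubation, inhibition taken as SEAP signal drop from agonist plus DMSO wells toward a known inhibitor control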
human TLR9, sequence (Q9NR96 26-1032): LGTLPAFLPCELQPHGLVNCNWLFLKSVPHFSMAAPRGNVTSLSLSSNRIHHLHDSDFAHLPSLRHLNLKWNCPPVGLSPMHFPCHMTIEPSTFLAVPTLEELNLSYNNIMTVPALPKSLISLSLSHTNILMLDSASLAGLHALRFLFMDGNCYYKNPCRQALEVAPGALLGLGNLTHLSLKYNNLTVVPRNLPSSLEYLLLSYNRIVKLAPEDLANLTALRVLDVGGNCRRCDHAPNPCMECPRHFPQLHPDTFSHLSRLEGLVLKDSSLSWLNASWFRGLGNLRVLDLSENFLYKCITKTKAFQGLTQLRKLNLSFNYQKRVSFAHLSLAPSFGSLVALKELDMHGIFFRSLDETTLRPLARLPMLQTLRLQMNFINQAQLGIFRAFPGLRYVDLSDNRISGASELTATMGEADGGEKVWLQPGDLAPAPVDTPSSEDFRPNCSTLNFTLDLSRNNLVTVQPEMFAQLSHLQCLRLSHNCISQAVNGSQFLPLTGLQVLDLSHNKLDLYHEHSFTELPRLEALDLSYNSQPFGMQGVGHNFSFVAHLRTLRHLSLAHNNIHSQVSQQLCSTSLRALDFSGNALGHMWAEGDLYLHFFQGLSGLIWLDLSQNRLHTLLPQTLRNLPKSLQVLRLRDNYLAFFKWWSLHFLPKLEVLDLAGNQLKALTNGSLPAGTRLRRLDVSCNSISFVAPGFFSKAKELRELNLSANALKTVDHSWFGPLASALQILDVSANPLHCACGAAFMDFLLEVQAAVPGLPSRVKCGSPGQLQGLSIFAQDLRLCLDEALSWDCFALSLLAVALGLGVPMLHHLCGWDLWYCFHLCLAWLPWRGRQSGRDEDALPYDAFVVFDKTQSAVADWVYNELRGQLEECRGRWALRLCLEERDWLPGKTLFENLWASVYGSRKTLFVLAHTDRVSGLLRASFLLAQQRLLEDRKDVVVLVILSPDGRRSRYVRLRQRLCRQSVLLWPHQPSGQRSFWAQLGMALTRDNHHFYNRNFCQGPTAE

[1] = read-out: TLR8 IC50, HEK-Blue cells overexpressing human TLR8, R848 15.9 μM
[2] = HEK-Blue cells overexpressing human TLR7, gardiquimod 7.5 μM
[3] = read-out: TLR9 IC50, HEK-Blue cells overexpressing human TLR9, ODN2006 5 nM

human TLR8, sequence (Q9NR97 27-1041): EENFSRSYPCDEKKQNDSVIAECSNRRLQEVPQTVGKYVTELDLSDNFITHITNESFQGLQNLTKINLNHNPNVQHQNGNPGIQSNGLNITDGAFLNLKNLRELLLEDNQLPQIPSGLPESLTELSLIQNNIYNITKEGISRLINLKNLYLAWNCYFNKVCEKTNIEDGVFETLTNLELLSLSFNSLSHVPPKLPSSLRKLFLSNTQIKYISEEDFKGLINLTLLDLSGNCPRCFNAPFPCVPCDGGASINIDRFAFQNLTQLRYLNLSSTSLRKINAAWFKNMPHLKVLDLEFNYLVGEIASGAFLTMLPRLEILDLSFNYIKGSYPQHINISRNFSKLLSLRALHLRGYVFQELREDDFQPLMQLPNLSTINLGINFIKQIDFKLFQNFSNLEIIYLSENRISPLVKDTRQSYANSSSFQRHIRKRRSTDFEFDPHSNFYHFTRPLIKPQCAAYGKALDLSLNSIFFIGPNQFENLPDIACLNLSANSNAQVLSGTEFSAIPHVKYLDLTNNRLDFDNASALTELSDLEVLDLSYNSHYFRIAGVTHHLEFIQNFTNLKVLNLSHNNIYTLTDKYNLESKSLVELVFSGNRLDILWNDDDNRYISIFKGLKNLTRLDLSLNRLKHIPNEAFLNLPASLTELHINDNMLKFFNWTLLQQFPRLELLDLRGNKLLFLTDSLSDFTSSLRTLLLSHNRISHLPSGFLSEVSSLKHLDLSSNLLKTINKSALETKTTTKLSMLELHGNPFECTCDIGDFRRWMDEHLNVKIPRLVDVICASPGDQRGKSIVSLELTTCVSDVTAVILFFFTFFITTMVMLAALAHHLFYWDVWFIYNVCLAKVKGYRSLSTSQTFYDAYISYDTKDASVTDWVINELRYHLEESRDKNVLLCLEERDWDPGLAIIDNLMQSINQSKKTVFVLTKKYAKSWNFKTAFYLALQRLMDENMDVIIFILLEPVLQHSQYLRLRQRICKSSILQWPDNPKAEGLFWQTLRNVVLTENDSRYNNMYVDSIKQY

Row | Compound | IC50 (human TLR8; [1]) | IC50 (human TLR7; [2]) | IC50 (human TLR9; [3]) | IC50 (human TLR8; TLR8 IC50, HEK-Blue cells overexpressing human TLR8, R848 15.9 μM) | IC50 (human TLR9; TLR9 IC50, HEK-Blue cells overexpressing human TLR9, ODN2006 5 nM) | IC50 (human TLR8; read-out: TLR8 IC50, HEK-Blue cells, R848 15.9 μM) | IC50 (human TLR7; HEK-Blue cells, gardiquimod 7.5 μM) | IC50 (human TLR9; read-out: TLR9 IC50, HEK-Blue cells, ODN2006 5 nM)
1 | Cc1cc(-c2[nH]c3ccc(C4CCN(CC(=O)N5CCC(C)CC5)CC4)cc3c2C(C)C)cc(C)n1 [Example 269, 2-(4-(2-(2,6-dimethylpyridin-4-yl)-3-isopropyl-1H-indol-5-yl)piperidin-1-yl)-1-(4-methylpiperidin-1-yl)ethan-1-one] | 19.8 nM | 3.7 nM | 227 nM |  |  |  |  | 
2 | FC(F)Cc1c(-c2ccnc(Cl)c2)[nH]c2ccc(C3CCNCC3)cc12 [Example 494, 2-(2-chloropyridin-4-yl)-3-(2,2-difluoroethyl)-5-(piperidin-4-yl)-1H-indole] | 66.4 nM | 36.5 nM | 2040 nM |  |  |  |  | 
3 | Cc1cc(-c2[nH]c3ccc(C4CCN(C(=O)CNC5CCOC5)CC4)cc3c2C(C)C)cc(C)n1 (stereo not drawn) [Example 387, 1-(4-(2-(2,6-dimethylpyridin-4-yl)-3-isopropyl-1H-indol-5-yl)piperidin-1-yl)-2-((tetrahydrofuran-3-yl)amino)ethan-1-one] | 13.3 nM | 0.6 nM | 909 nM |  |  |  |  | 
4 | CCc1c(-c2cc(C)nc(C)c2)[nH]c2ccc(C3CCN(C(=O)CN(C)C)CC3)cc12 [Example 528, 2-(dimethylamino)-1-(4-(2-(2,6-dimethylpyridin-4-yl)-3-ethyl-1H-indol-5-yl)piperidin-1-yl)ethan-1-one] | 50.9 nM | 16 nM | 150 nM |  |  |  |  | 
5 | CC(C)c1c(-c2cc(C3CC3)ncc2F)[nH]c2ccc(C3CCN(C(=O)CN(C)C)CC3)cc12 [Example 516, 1-(4-(2-(2-cyclopropyl-5-fluoropyridin-4-yl)-3-isopropyl-1H-indol-5-yl)piperidin-1-yl)-2-(dimethylamino)ethan-1-one] | 190 nM | 12.1 nM | 1460 nM |  |  |  |  | 
6 | Cc1cc(-c2[nH]c3ccc(C4CCN(S(C)(=O)=O)CC4)cc3c2C(C)C)ccn1 [Example 550, 3-isopropyl-2-(2-methylpyridin-4-yl)-5-(1-(methylsulfonyl)piperidin-4-yl)-1H-indole] | 162 nM | 39 nM | > 50000 nM |  |  |  |  | 
7 | CCc1c(-c2ccnc(OC(C)C)c2)[nH]c2ccc(C3CCN(C4CCN(CC(C)C)CC4)CC3)cc12 [Example 769, 3-ethyl-5-(1′-isobutyl-[1,4′-bipiperidin]-4-yl)-2-(2-isopropoxypyridin-4-yl)-1H-indole] | 1050 nM | 5380 nM | 1500 nM |  |  |  |  | 
8 | Cc1cc(-c2[nH]c3ccc(C4CCN(CC(=O)NCC(C)(C)O)CC4)cc3c2C(C)C)cc(C)n1 [Example 268, 2-(4-(2-(2,6-dimethylpyridin-4-yl)-3-isopropyl-1H-indol-5-yl)piperidin-1-yl)-N-(2-hydroxy-2-methylpropyl)acetamide] | 7.2 nM | 3 nM | 416 nM |  |  |  |  | 
9 | Cc1cc(-c2[nH]c3ccc(C4CCN(CC(=O)N5CCC[C@H]5CO)CC4)cc3c2C(C)C)cc(C)n1 [Example 274, (S)-2-(4-(2-(2,6-dimethylpyridin-4-yl)-3-isopropyl-1H-indol-5-yl)piperidin-1-yl)-1-(2-(hydroxymethyl)pyrrolidin-1-yl)ethan-1-one] | 9.1 nM | 1.9 nM | 261 nM |  |  |  |  | 
10 | Cc1cc(-c2[nH]c3ccc(C4CCNCC4)cc3c2C(C)C)c([N+](=O)[O-])c(C)n1 [Example 27, 2-(2,6-dimethyl-3-nitropyridin-4-yl)-3-isopropyl-5-(piperidin-4-yl)-1H-indole] | 8.9 nM | 15.1 nM | 2970 nM |  |  |  |  | 
11 | CNCCN1CCC(c2ccc3[nH]c(-c4cc(C)nc(C)c4)c(C(C)C)c3c2)CC1 [Example 428, 2-(4-(2-(2,6-dimethylpyridin-4-yl)-3-isopropyl-1H-indol-5-yl)piperidin-1-yl)-N-methylethan-1-amine] |  | 1.9 nM |  | 1.9 nM | 120 nM |  |  | 
12 | Cc1cc(-c2[nH]c3ccc(C4CCN(Cc5cnc[nH]5)CC4)cc3c2C(C)C)ccn1 [Example 820, 5-(1-((1H-imidazol-5-yl)methyl)piperidin-4-yl)-3-isopropyl-2-(2-methylpyridin-4-yl)-1H-indole] |  |  |  |  |  | 5.8 nM | 71.5 nM | 209 nM
13 | CC(C)c1c(-c2cc(C3CC3)ncc2F)[nH]c2ccc(C3CCNCC3)cc12 [Example 481, 2-(2-cyclopropyl-5-fluoropyridin-4-yl)-3-isopropyl-5-(piperidin-4-yl)-1H-indole] | 95.4 nM | 16 nM | 677 nM |  |  |  |  | 
14 | Cc1nccc(-c2[nH]c3ccc(C4CCNCC4)cc3c2C(C)C)c1N [Example 13, 4-(3-isopropyl-5-(piperidin-4-yl)-1H-indol-2-yl)-2-methylpyridin-3-amine] | 90 nM | 16.1 nM | 419 nM |  |  |  |  | 
15 | Cc1cc(-c2[nH]c3ccc(C4CCN(CC(=O)N(C(C)C)C(C)C)CC4)cc3c2C(C)C)cc(C)n1 [Example 253, 2-(4-(2-(2,6-dimethylpyridin-4-yl)-3-isopropyl-1H-indol-5-yl)piperidin-1-yl)-N,N-diisopropylacetamide] | 37.1 nM | 19.7 nM | 1340 nM |  |  |  |  | 
16 | Cc1cc(-c2[nH]c3ccc(C4CCN(C(=O)CCn5ccnc5C)CC4)cc3c2C(C)C)cc(C)n1 [Example 124, 1-(4-(2-(2,6-dimethylpyridin-4-yl)-3-isopropyl-1H-indol-5-yl)piperidin-1-yl)-3-(2-methyl-1H-imidazol-1-yl)propan-1-one] | 10.1 nM | 1.9 nM | 394 nM |  |  |  |  | 
17 | CCc1c(-c2ccnc(OC)c2)[nH]c2ccc(C3CCN(C4CCCN(C5CCCC5)CC4)CC3)cc12 (stereo not drawn) [Example 793, 5-(1-(1-cyclopentylazepan-4-yl)piperidin-4-yl)-3-ethyl-2-(2-methoxypyridin-4-yl)-1H-indole] | 29.6 nM | 371 nM | 252 nM |  |  |  |  | 
18 | Cc1cc(-c2[nH]c3ccc(C4CCN(C(=O)OCC(C)C)CC4)cc3c2C(C)C)ccn1 [Example 558, isobutyl 4-(3-isopropyl-2-(2-methylpyridin-4-yl)-1H-indol-5-yl)piperidine-1-carboxylate] | 1840 nM | 3400 nM | 15000 nM |  |  |  |  | 
19 | Cc1cc(-c2[nH]c3ccc(C4CCN(CC(=O)NC56C[C@@H]7C[C@@H](CC(O)(C7)C5)C6)CC4)cc3c2C(C)C)cc(C)n1 [Example 225, 2-(4-(2-(2,6-dimethylpyridin-4-yl)-3-isopropyl-1H-indol-5-yl)piperidin-1-yl)-N-((1r,3 s,5R,7S)-3-hydroxyadamantan-1-yl)acetamide] | 26.8 nM | 11.6 nM | 651 nM |  |  |  |  | 
20 | Cc1cc(-c2[nH]c3ccc(C4CCN(Cc5cncs5)CC4)cc3c2C(C)C)c(F)cn1 [Example 688, 5-((4-(2-(5-fluoro-2-methylpyridin-4-yl)-3-isopropyl-1H-indol-5-yl)piperidin-1-yl)methyl)thiazole] | 2 nM | 12.1 nM | 6190 nM |  |  |  |  | 
21 | Cc1ccc(OC(=O)N2CCC(c3ccc4[nH]c(-c5ccnc(C)c5)c(C(C)C)c4c3)CC2)cc1 [Example 557, p-Tolyl 4-(3-isopropyl-2-(2-methylpyridin-4-yl)-1H-indol-5-yl)piperidine-1-carboxylate] | 3250 nM | 1530 nM | 6040 nM |  |  |  |  | 
22 | Cc1cc(-c2[nH]c3ccc(C4CCN(Cc5ncon5)CC4)cc3c2C(C)C)cc(C)n1 [Example 463, 3-((4-(2-(2,6-dimethylpyridin-4-yl)-3-isopropyl-1H-indol-5-yl)piperidin-1-yl)methyl)-1,2,4-oxadiazole] | 17.7 nM | 8.3 nM | 3360 nM |  |  |  |  | 
23 | CCc1c(-c2ccnc(NC(C)=O)c2)[nH]c2ccc(C3CCNCC3)cc12 [Example 68, N-(4-(3-ethyl-5-(piperidin-4-yl)-1H-indol-2-yl)pyridin-2-yl)acetamide] | 1030 nM | 4190 nM | 1030 nM |  |  |  |  | 
24 | COc1cc(OC)nc(CN2CCC(c3ccc4[nH]c(-c5cc(C)ncc5F)c(C(C)C)c4c3)CC2)n1 [Example 694, 5-(1-((4,6-dimethoxypyrimidin-2-yl)methyl)piperidin-4-yl)-2-(5-fluoro-2-methylpyridin-4-yl)-3-isopropyl-1H-indole] | 7.8 nM | 20.7 nM | 3690 nM |  |  |  |  | 
25 | Cc1cc(-c2[nH]c3ccc(C4CCN(CCC#N)CC4)cc3c2C(C)C)cc(C)n1 [Example 315, 3-(4-(2-(2,6-dimethylpyridin-4-yl)-3-isopropyl-1H-indol-5-yl)piperidin-1-yl)propanenitrile] | 9 nM | 6.6 nM | 1060 nM |  |  |  |  | 
26 | Cc1cc(-c2[nH]c3ccc(C4CCN(C(=O)CN(C)CC(C)C)CC4)cc3c2C(C)C)cc(C)n1 [Example 355, 1-(4-(2-(2,6-dimethylpyridin-4-yl)-3-isopropyl-1H-indol-5-yl)piperidin-1-yl)-2-(isobutyl (methyl)amino)ethan-1-one] | 34 nM | 8.8 nM | 1070 nM |  |  |  |  | 
27 | Cc1cc(-c2[nH]c3ccc(C4CCN(C(=O)c5cccnc5)CC4)cc3c2C(C)C)cc(C)n1 [Example 112, (4-(2-(2,6-dimethylpyridin-4-yl)-3-isopropyl-1H-indol-5-yl)piperidin-1-yl)(pyridin-3-yl)methanone] | 99.9 nM | 6.2 nM | 15800 nM |  |  |  |  | 
28 | COc1cc(-c2[nH]c3ccc(C4CCN(C5CCN(C(C)C)CC5)CC4)cc3c2C(C)C)ccn1 [Example 797, 3-isopropyl-5-(1′-isopropyl-[1,4′-bipiperidin]-4-yl)-2-(2-methoxypyridin-4-yl)-1H-indole] | 23.1 nM | 141 nM | 596 nM |  |  |  |  | 
